Source: PubChem BioAssay AID1508591

Settings: rat; liver microsomes; pH 7.4; 15.0 min; 1.0 µM

| SMILES | half-life |
| --- | --- |
| COc1cccc(Nc2nc(-c3ccncc3)nc3ccccc23)c1 | 4.3 min |
| CNCc1ccc(-c2cc(-c3nc(-c4ccc(S(=O)(=O)C(C)C)cc4)cnc3N)on2)cc1 | > 30 min |
| Fc1ccc(Nc2ccnc(-c3ccncc3)n2)cc1F | 13 min |
| CCCc1c(CC)c(=N)c2ccccc2n1C | > 30 min |
| Cc1noc(C)c1S(=O)(=O)Nc1cnccc1C(=O)Nc1nc(-c2ccccc2)cs1 | > 30 min |
| Cc1cc(F)ccc1S(=O)(=O)Nc1cnccc1C(=O)Nc1nc(-c2ccccc2)cs1 | 20 min |
| CCC(CC)(NC(=O)C(C)C)C(=O)N[C@@H](CCCN=C(N)N)C(=O)NC1(C(=O)NC(c2ccc(F)cc2)c2ccc(F)cc2)CCCC1 | > 30 min |
| O=[S+]([O-])(Nc1nccs1)c1ccc(NCc2ccc(Cl)c(Cl)c2)cc1 | 24 min |
| CC(C)Nc1oc(-c2cccc3ccccc23)nc1C#N | 24 min |
| Cc1ccc(NC2=C(c3ccc(C(F)(F)F)cc3)C(=O)c3ccccc32)cc1F | 8.96 min |
| Clc1ccc(C2(c3ccc(-c4cn[nH]c4)cc3)CCNCC2)cc1 | > 30 min |
| CSc1cccc(NC(=O)CC[C@H]2O[C@@H]3O[C@]4(C)CC[C@H]5[C@H](C)CC[C@@H]([C@@H]2C)[C@@]35OO4)c1 | 2.3 min |
| Cc1c(-c2cccc(NC(=O)c3ccc(F)c(F)c3)c2)nc2ncccn12 | 12.6 min |
| Cc1noc(C)c1-c1cc2c(cc(C)n2C)c(-c2cnn(C)c2)n1 | > 30 min |
| NC(=O)C1CCN(c2nc(-c3ccc(C(F)(F)F)cc3)cs2)CC1 | 5.39 min |
| Clc1ccc(-c2noc3ncnc(N4CCCCC4)c23)cc1 | 5.8 min |
| CC1=C(C(=O)Nc2nnc(-c3ccccc3)s2)C(c2[nH]ncc2Cl)N=C(Nc2nc3ccccc3o2)N1 (stereo not drawn) | 11 min |
| CCN(c1ccccc1)S(=O)(=O)c1cc(C(=O)Nc2ccc(Br)cc2)ccc1F | 1.5 min |
| Nc1nc2c(s1)C(c1ccccc1OCc1ccccc1Cl)CC(=O)N2 (stereo not drawn) | 6.28 min |
| OC1(CN2CCN(c3ccc(F)c(Cl)c3)CC2)CCCNC1 (stereo not drawn) | 5.96 min |
| O=C1Nc2c(Cl)cccc2/C1=C\c1cc(Cl)c(O)c(Cl)c1 | > 30 min |
| NC(=O)C1CCN(c2nnc(-c3ccc4c(c3)OCCCO4)s2)CC1 | > 30 min |
| CN1CCN(c2ccc(Nc3nc(-c4ccncc4)nc4ccccc34)cc2F)CC1 | 8.8 min |
| Cc1ccc(S(=O)(=O)Nc2cnccc2C(=O)Nc2nc(-c3ccco3)cs2)cc1 | 1.9 min |

| SMILES | half-life |
| --- | --- |
| CCCN1CNc2c(c(=O)[nH]c(=S)n2CCc2cccc(Cl)c2Cl)C1 | 2.47 min |
| Cn1cncc1[C@@](N)(c1ccc(Cl)cc1)c1ccc2c(c1)c(-c1cccc(Cl)c1)cc(=O)n2C | 9.54 min |
| CCOC(=O)C1(Cc2ccccc2C(F)(F)F)CCN(C2CCN(C(C)C)CC2)CC1 | > 30 min |
| COc1ccc2[nH]c(=O)c(-c3noc(-c4ccc(F)cc4)n3)cc2c1 | > 30 min |
| Cc1nnc(N2C(=O)c3oc4ccccc4c(=O)c3C2c2ccc(F)cc2)s1 (stereo not drawn) | > 30 min |
| Cc1cc(N)c2cc(NC(=O)Nc3ccc4nc(C)cc(N)c4c3)ccc2n1 | > 30 min |
| COc1ccc(-c2nc3sc(CCNC(=O)C(C)(C)C)c(C)n3n2)cc1 | 9.33 min |
| Cc1ccc(S(=O)(=O)Nc2ccccc2C(=O)Nc2nc(-c3ccccc3)co2)cc1 | 3.9 min |
| Cc1c(-c2cccc3c(CCCOc4cccc5ccccc45)c(C(=O)O)n(Cc4cccnc4)c23)c(COc2ccc(N3CCN([S+](=O)([O-])N(C)C)CC3)cc2)nn1C | 12 min |
| O=C(Nc1ccc([S+](=O)([O-])Nc2nccs2)cc1)c1ncn[nH]1 | > 30 min |
| NC(=O)C1CCN(c2ncc(Br)s2)CC1 | > 30 min |
| COc1cccc(NC(=S)N2CCN(c3cccc(C(F)(F)F)c3)CC2)n1 | 17.6 min |
| O=C1c2ccccc2-n2c1nc1ccccc1c2=O | 21.3 min |
| O=[S+]([O-])(Nc1ccc(-c2ccccc2)cc1)c1ccc(NCc2ccc(Cl)cc2O)cc1 | 18 min |
| CCOC(=O)C1CCN(C(=O)C2(NC(=O)Nc3ccc(F)cc3F)CCCCC2)CC1 | 2.7 min |
| O=C1Nc2ccccc2/C1=C/c1cc(Cl)c(O)c(Cl)c1 | > 30 min |
| c1ccc2c(Nc3nccs3)nc(-c3ccncc3)nc2c1 | 6.4 min |
| CCc1ccccc1Nc1ncnc2c1cnn2-c1ccc(Cl)cc1 | 7.13 min |
| COC(=O)c1ccccc1NC(=O)c1ccccc1OC(F)F | 2.8 min |
| Cc1ccc(S(=O)(=O)Nc2cnccc2C(=O)Nc2ccccc2)cc1 | 2.6 min |
| COc1ccc2c(c1)N(C[C@H](C)CN(C)C)c1ccccc1S2 | 2.07 min |
| Fc1ccccc1Nc1nc(-c2ccncc2)nc2ccccc12 | 7.9 min |
| O=C1CCCC2=C1C(c1ccncc1Cl)N=C(Nc1nc3ccccc3o1)N2 (stereo not drawn) | 6.6 min |

Now from value to compound:

| half-life | SMILES |
| --- | --- |
| > 30 min | COCCNC(=O)c1ccc(Cn2c(=S)[nH]c3cc4c(cc3c2=O)OCO4)cc1 |
| > 30 min | CN1Cc2c(cc(N3CCOCC3)nc2-c2ccccc2OC(F)(F)F)C1=O |
| 2.09 min | COc1cc(OC)cc(-c2csc(N3CCC(C(N)=O)CC3)n2)c1 |
| 22 min | Cc1ccc(S(=O)(=O)Nc2cc(Cl)cc(C(=O)Nc3nc(-c4ccccc4)cs3)c2)cc1 |
| 2.78 min | Cc1nn2c(c1-c1ccccc1-c1ccccc1)N(CC1CC1)CCC2 |
| > 30 min | CC(=O)Nc1nc(C)c(-c2ccc(Cl)c(S(=O)(=O)NCCO)c2)s1 |
| 5 min | Cc1ccccc1S(=O)(=O)N1CCc2cc(-c3nc(NC(=O)Cc4ccc5c(c4)OCO5)sc3C)ccc21 |
| 3.51 min | CCS(=O)(=O)c1ncc(N(Cc2ccc(F)cc2)Cc2ccco2)c(C(=O)Nc2cc(C)ccc2C)n1 |
| 13 min | Cc1ccc(S(=O)(=O)Nc2ccccc2C(=O)Nc2ncc(-c3ccccc3)s2)cc1 |
| > 30 min | O=C(c1ccccc1)N1CCC(C(=O)N2CCC(N3Cc4ccccc4C3=O)CC2)CC1 |
| 23.4 min | COc1ccc(-n2nc(C3CCCN(C(=O)c4cccc(OC)c4)C3)[nH]c2=O)cc1 (stereo not drawn) |
| 1.8 min | COc1ccc(-c2ccc3nc(-c4ccc(SC)cc4)oc3c2)c(OC)c1OC |
| 5.62 min | Cc1ccccc1C(C(=O)NC1CCCCC1)N(C(=O)Cn1ccnc1C)c1cccc(F)c1 (stereo not drawn) |
| > 30 min | COc1cccc(CNc2ccc(S(=O)(=O)Nc3nc4ccccc4o3)cc2)c1O |
| 1.28 min | Cc1cccc(N2CCN(C(=O)c3ccc4c(c3)C(O)CCCCCN4C)CC2)c1 (stereo not drawn) |
| 5.16 min | CNc1ccc(Br)cc(C(=O)/C=C/c2ccc(OC)cc2OC)c1=O |
| > 30 min | CN(C(=O)c1cn2c(-c3ccc(C(F)(F)F)cc3)cnc2cn1)c1ccc(C#N)cc1 |
| 5.46 min | CCC1=Nc2cc(C(=O)NCCCOC)ccc2Sc2ccc(Br)cc21 |
| 18.3 min | NC(=O)C1CCN(c2nc(-c3ccc(OCc4ccccc4)cc3)cs2)CC1 |
| > 30 min | COc1cc2c(cc1OC)C(C[C@H]1CN(S(=O)(=O)c3cccc(C#N)c3)CC[C@H]1CC(=O)O)=NCC2 |
| > 30 min | COc1ccc(-n2nc(C3CCCN(CC4CCCCC4)C3)[nH]c2=O)cc1 (stereo not drawn) |
| 13.4 min | O=C1NCc2cc(-c3cc4c(ccn4Cc4ccncc4)c(N4CCOCC4)n3)ccc21 |
| 2.3 min | CC1(C)CC2CC(C)(CN2S(=O)(=O)c2ccc(C(=O)Nc3ccc(Cl)cc3)cc2)C1 (stereo not drawn) |
| 16 min | CCCCCn1c(=O)[nH]c2cc(C(=O)NCCCN3CCC(C)CC3)ccc2c1=O |
| > 30 min | NC1CCN(C(=O)C2CCCN(c3nc(-c4ccccc4)nc4c3CCC4)C2)CC1 (stereo not drawn) |
| 17 min | CC(=O)c1c(C)[nH]c(C(=O)Nc2cccc(S(=O)(=O)Nc3ccc(Br)c(F)c3)c2)c1C |
